{"source": "patent US11952349B2", "about": "“Anti-cancer nuclear hormone receptor-targeting compounds” (Nuvation Bio Inc., priority 2019, dated 2024)", "molecular_target": "T1, AR in LNCaP cytosol (Homo sapiens, UniProt P10275, T878A)", "T1 construct": "AR in LNCaP cytosol was used; endogenous in cells; host or cells: LNCaP cells (cytosol)", "T1 sequence (P10275 1-920 T878A)": "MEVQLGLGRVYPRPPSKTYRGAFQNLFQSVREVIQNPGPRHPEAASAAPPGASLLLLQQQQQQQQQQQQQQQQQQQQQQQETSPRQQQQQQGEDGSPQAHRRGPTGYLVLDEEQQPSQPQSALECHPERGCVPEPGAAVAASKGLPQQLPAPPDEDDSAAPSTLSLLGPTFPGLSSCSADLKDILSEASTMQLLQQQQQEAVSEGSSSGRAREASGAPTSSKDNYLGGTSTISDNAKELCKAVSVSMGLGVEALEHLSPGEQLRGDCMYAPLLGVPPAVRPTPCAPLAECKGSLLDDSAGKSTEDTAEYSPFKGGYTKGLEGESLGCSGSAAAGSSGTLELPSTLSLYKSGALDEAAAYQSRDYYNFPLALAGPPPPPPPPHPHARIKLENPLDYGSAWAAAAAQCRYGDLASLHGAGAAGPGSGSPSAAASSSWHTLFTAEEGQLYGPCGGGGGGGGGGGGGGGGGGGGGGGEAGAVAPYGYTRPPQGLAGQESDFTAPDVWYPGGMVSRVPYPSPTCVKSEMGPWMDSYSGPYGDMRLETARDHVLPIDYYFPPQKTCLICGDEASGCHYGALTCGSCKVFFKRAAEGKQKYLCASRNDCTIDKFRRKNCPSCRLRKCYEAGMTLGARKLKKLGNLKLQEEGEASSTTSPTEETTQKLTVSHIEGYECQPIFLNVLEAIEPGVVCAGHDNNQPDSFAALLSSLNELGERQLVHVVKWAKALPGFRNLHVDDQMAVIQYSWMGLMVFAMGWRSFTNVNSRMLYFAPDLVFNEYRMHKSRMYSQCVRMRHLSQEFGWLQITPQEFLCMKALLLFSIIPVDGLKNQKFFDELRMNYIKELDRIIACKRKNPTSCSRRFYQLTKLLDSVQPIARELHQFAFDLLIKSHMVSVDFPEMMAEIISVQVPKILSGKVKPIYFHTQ", "test": "AR binding assay, 3H-methyltrienolone (Biological Example 1)", "details": "Table 6, in vitro NHR binding; Ki=IC50/(1+[L]/Kd), [L] 1 nM, Kd 0.332 nM", "procedure": "The following methods are for evaluating the in vitro biology properties of the test articles. • a. RBC HotSpot Poly(ADP-ribose) Polymerases 1 (PARP1) and Poly(ADP-ribose) Polymerases 2 (PARP2) Assays: The assay was conducted at Reaction Biology Corporation (RBC; Malvern, PA). The assay principle is radioisotope-based filter binding assay where incorporation of radioisotope-labeled NAD^+ into the substrate captured on filter is detected after washout free NAD^+. Data were analyzed using Excel and GraphPad Prism software for IC50 curve fits. Each assay was conducted with PJ34 as a positive control. […] After incubation for 2 hrs at room temperature, the reaction mixture was filtered and washed with 0.75% phosphoric acid for radioactivity detection. • ii. […] After incubation for 2 hrs at room temperature, the reaction mixture was filtered and washed with 0.75% phosphoric acid for radioactivity detection. • b. […] IC50 s were determined using 8 concentrations/compound. […] Radioactivity is counted using a TriCarb 2910 TR scintillation counter (PerkinElmer). […] The Ki values were further calculated using the equation below where [L] is the radioligand concentration (1 nM) used in this study. […]", "data": [{"compound": "Cn1ncnc1C1c2n[nH]c(=O)c3cc(F)cc(c23)N[C@@H]1c1ccc(NC(=O)CCCCCO[C@@H]2CC[C@H]3[C@@H]4CC[C@H]5CCCC[C@]5(C)[C@H]4CC[C@]23C)cc1", "note": "(stereo partly drawn) [Compound 1128, 6-((5R,8R,9S,10S,13S,14S,17R)-10,13-dimethylhexadecahydro-1H-cyclopenta[a]phenanthren-17-yloxy)-N-(4-((8S)-5-fluoro-9-(1-methyl-1H-1,2,4-triazol-5-yl)-3-oxo-3,7,8,9-tetrahydro-2H-pyrido[4,3,2-de]phthalazin-8-yl)phenyl)hexanamide]", "values": [{"measurement": "Ki", "value": "> 7.47", "unit": "µM"}]}]}
